Like-named read-outs stand apart in the source and are kept apart here.
Columns and labels:
[1] = system: E. coli DH5α/pLBII-CTX-M15; experiment: Broth microdilution MIC assay, engineered strain producing CTX-M15; format: cell-based, Escherichia coli; details: for MIC: Escherichia coli, read-out: E. coli DH5α/pLBII-CTX-M15 Microbiological Activity (MIC); for MIC in the CTX-M15 producer compared with the parent strain with the empty pLBII plasmid: comparison in words
Method: (§1) To determine the ability of test compounds to potentiate the inhibition of the growth of bacterial strains, classic cell based broth microdilution MIC assays were employed. MIC assays are performed according to CLSI methods except where otherwise noted (CLSI, 2011 and CLSI, 2009). The reference strain S. aureus ATCC 29213 and the hyper-permeable E. coli 901C were used to determine the ability of the PBP compounds to inhibit bacterial growth. Briefly, cryo-preserved bacterial cultures of clinical strains are streaked for isolation on appropriate agar medium, in this case Mueller Hinton II agar. Following incubation to allow formation of colonies these plates are sealed with parafilm and stored refrigerated for up to two weeks. For preparation of assay inocula and to ensure low variability, at least 5 colonies are picked from the agar plates with an inoculating loop and aseptically transferred to a culture tube containing 3 mL of Mueller-Hinton Broth (supplemented with divalent cations to required levels based on Manufacturers' certification). The broth culture is grown for 3-5 hours at 37° C. with shaking at 200 rpm. Meanwhile, 2-fold serial dilutions of test compounds are conducted in a 96 well plate with a final volume of 75 μL per well at 2-fold the final desired concentration. After the dilution plates are set up the growing cultures are then diluted in a cuvette containing MH II broth and the optical density is measured at 600 nm. Inocula are diluted such that 75 μL of this culture in Mueller-Hinton Broth results in a starting bacterial concentration of 5×10^5 CFU/mL when added to the dilution plates. The plates are incubated 16-20 hours at 37° C. The MIC is read visually as the lowest concentration well with no bacterial growth.
(§2) To determine if test compounds were affected by CTX-M15, the most abundant extended spectrum β-lactamase in clinical settings worldwide, the inhibition of the growth of an engineered strain of Escherichia coli harboring CTX-M15 was tested. This strain was constructed by cloning the gene encoding CTX-M15 into the NdeI and BamHI restriction endonuclease sites of plasmid pLBII, placing the gene(s) under the control of the Lac promoter. The constructed expression plasmid for CTX-M15 was used to transform competent E. coli DH5a cells to make the engineered strain, including an empty pLBII vector control strain. The classic cell based broth microdilution MIC assay was employed as described above with the addition of control antibiotics, known to be degraded by β-lactamases (Ceftazidime, piperacillin and piperacillin+tazobactam).

S. aureus ATCC 29213 = experiment: Broth microdilution MIC assay; format: cell-based; details: Staphylococcus aureus
Method: as §1

[2] = system: hyper-permeable E. coli 901C; experiment: Broth microdilution MIC assay; format: cell-based; details: Escherichia coli, read-out: E. coli 901C MIC
Method: as §1

E. coli DH5α/pLBII = experiment: Broth microdilution MIC assay, empty vector control strain; format: cell-based; details: Escherichia coli, read-out: E. coli DH5α/pLBII Microbiological Activity (MIC)
Method: as §1, §2

[3] = ATCC29213, broth microdilution, 16-20 hours at 37° C., read-out: S. aureus 29213 MIC

| SMILES | MIC [1] [µg/mL] | MIC (S. aureus ATCC 29213; [3]) [µg/mL] | MIC [2] [µg/mL] | MIC (E. coli DH5α/pLBII) [µg/mL] | MIC (S. aureus ATCC 29213; ATCC29213, read-out: S. aureus 29213 MIC) [µg/mL] | MIC in the CTX-M15 producer compared with the parent strain with the empty pLBII plasmid [1] |
| --- | --- | --- | --- | --- | --- | --- |
| CCC(O)[C@H](NC(=O)N1CCN(CC)C(=O)C1=O)C(=O)N[C@H]1Cc2cccc(C(=O)O)c2OB1O (single isomer, unassigned) [Example 83] | 128 to 256 | > 128 | 64 to 128 | 128 to 256 | – | – |
| N[C@H](Cc1ccccc1)C(=O)N[C@H]1Cc2cccc(C(=O)O)c2OB1O [Example 1, (R)-3-((R)-2-amino-3-phenylpropanamido)-2-hydroxy-3,4-dihydro-2H-benzo[e][1,2]oxaborinine-8-carboxylic acid] | > 512 | > 128 | > 128 | > 512 | – | – |
| N[C@@H](C(=O)N[C@H]1Cc2cccc(C(=O)O)c2OB1O)c1ccccc1 [Example 2, (R)-3-((R)-2-amino-2-phenylacetamido)-2-hydroxy-3,4-dihydro-2H-benzo[e][1,2]oxaborinine-8-carboxylic acid] | > 512 | > 128 | > 128 | > 512 | – | – |
| COc1ccc([C@@H](N)C(=O)N[C@H]2Cc3cccc(C(=O)O)c3OB2O)cc1 [Example 4, (R)-3-((R)-2-amino-2-(4-methoxyphenyl)acetamido)-2-hydroxy-3,4-dihydro-2H-benzo[e][1,2]oxaborinine-8-carboxylic acid] | > 512 | > 128 | > 128 | > 512 | – | – |
| COc1ccc([C@H](N)C(=O)N[C@H]2Cc3cccc(C(=O)O)c3OB2O)cc1 [Example 5, (R)-3-((S)-2-amino-2-(4-methoxyphenyl)acetamido)-2-hydroxy-3,4-dihydro-2H-benzo[e][1,2]oxaborinine-8-carboxylic acid] | > 512 | 64 to 128 | > 128 | > 512 | – | – |
| N[C@@H](C(=O)N[C@H]1Cc2cccc(C(=O)O)c2OB1O)c1ccc(O)cc1 [Example 6, (R)-3-((R)-2-amino-2-(4-hydroxyphenyl)acetamido)-2-hydroxy-3,4-dihydro-2H-benzo[e][1,2]oxaborinine-8-carboxylic acid] | > 512 | > 128 | > 128 | > 512 | – | – |
| N[C@H](C(=O)N[C@H]1Cc2cccc(C(=O)O)c2OB1O)c1ccc(O)cc1 [Example 7, (R)-3-((S)-2-amino-2-(4-hydroxyphenyl)acetamido)-2-hydroxy-3,4-dihydro-2H-benzo[e][1,2]oxaborinine-8-carboxylic acid] | 128 to 256 | 64 to 128 | > 128 | 128 to 256 | – | – |
| Nc1nc([C@@H](N)C(=O)N[C@H]2Cc3cccc(C(=O)O)c3OB2O)cs1 [Example 8, (R)-3-((R)-2-amino-2-(2-aminothiazol-4-yl)acetamido)-2-hydroxy-3,4-dihydro-2H-benzo[e][1,2]oxaborinine-8-carboxylic acid] | > 512 | > 128 | > 128 | > 512 | – | – |
| Nc1nc([C@H](N)C(=O)N[C@H]2Cc3cccc(C(=O)O)c3OB2O)cs1 [Example 9, (R)-3-((S)-2-amino-2-(2-aminothiazol-4-yl)acetamido)-2-hydroxy-3,4-dihydro-2H-benzo[e][1,2]oxaborinine-8-carboxylic acid] | 128 to 256 | > 128 | > 128 | 128 to 256 | – | – |
| Cc1cc(C)n2c1C=C1C=CC(CCC(=O)NCCON=C(C(=O)N[C@H]3Cc4cccc(C(=O)O)c4OB3O)c3csc(N)n3)=[N+]1[B-]2(F)F [Example 13, (R)-3-(2-(2-aminothiazol-4-yl)-2-((2-(3-(5,5-difluoro-7,9-dimethyl-5H-4λ^4,5λ^4-dipyrrolo[1,2-c:2′,1′-f][1,3,2]diazaborinin-3-yl)propanamido)ethoxy)imino)acetamido)-2-hydroxy-3,4-dihydro-2H-benzo[e][1,2]oxaborinine-8-carboxylic acid] | > 512 | – | > 128 | > 512 | > 128 | – |
| CN(C)C(=O)NC(C(=O)N[C@H]1Cc2cccc(C(=O)O)c2OB1O)c1csc(N)n1 (stereo partly drawn) [Example 14, (3R)-3-(2-(2-aminothiazol-4-yl)-2-(3,3-dimethylureido)acetamido)-2-hydroxy-3,4-dihydro-2H-benzo[e][1,2]oxaborinine-8-carboxylic acid] | 128 to 256 | > 128 | < 64 | 128 to 256 | – | – |
| Nc1nc(C(NC(=O)c2nccs2)C(=O)N[C@H]2Cc3cccc(C(=O)O)c3OB2O)cs1 (stereo partly drawn) [Example 15, (3R)-3-(2-(2-aminothiazol-4-yl)-2-(thiazole-2-carboxamido)acetamido)-2-hydroxy-3,4-dihydro-2H-benzo[e][1,2]oxaborinine-8-carboxylic acid] | 128 to 256 | < 64 | < 64 | 128 to 256 | – | – |
| Nc1nc(C(NC(=O)c2cscn2)C(=O)N[C@H]2Cc3cccc(C(=O)O)c3OB2O)cs1 (stereo partly drawn) [Example 16, (3R)-3-(2-(2-aminothiazol-4-yl)-2-(thiazole-4-carboxamido)acetamido)-2-hydroxy-3,4-dihydro-2H-benzo[e][1,2]oxaborinine-8-carboxylic acid] | 128 to 256 | 64 to 128 | < 64 | 128 to 256 | – | – |
| Nc1nc(C(NC(=O)N2CCOCC2)C(=O)N[C@H]2Cc3cccc(C(=O)O)c3OB2O)cs1 (stereo partly drawn) [Example 18, (3R)-3-(2-(2-aminothiazol-4-yl)-2-(morpholine-4-carboxamido)acetamido)-2-hydroxy-3,4-dihydro-2H-benzo[e][1,2]oxaborinine-8-carboxylic acid] | 128 to 256 | > 128 | < 64 | 128 to 256 | – | – |
| Nc1nc(C(NC(=O)Cc2ncccn2)C(=O)N[C@H]2Cc3cccc(C(=O)O)c3OB2O)cs1 (stereo partly drawn) [Example 21, (3R)-3-(2-(2-aminothiazol-4-yl)-2-(2-(pyrimidin-2-yl)acetamido)acetamido)-2-hydroxy-3,4-dihydro-2H-benzo[e][1,2]oxaborinine-8-carboxylic acid] | > 512 | 64 to 128 | 64 to 128 | > 512 | – | – |
| Nc1nc(CC(=O)NC(C(=O)N[C@H]2Cc3cccc(C(=O)O)c3OB2O)c2csc(N)n2)cs1 (stereo partly drawn) [Example 22, (3R)-3-(2-(2-aminothiazol-4-yl)-2-(2-(2-aminothiazol-4-yl)acetamido)acetamido)-2-hydroxy-3,4-dihydro-2H-benzo[e][1,2]oxaborinine-8-carboxylic acid] | 128 to 256 | 64 to 128 | < 64 | 128 to 256 | – | – |
| CN(C)S(=O)(=O)NC(C(=O)N[C@H]1Cc2cccc(C(=O)O)c2OB1O)c1csc(N)n1 (stereo partly drawn) [Example 23, (3R)-3-(2-(2-aminothiazol-4-yl)-2-((N,N-dimethylsulfamoyl)amino)acetamido)-2-hydroxy-3,4-dihydro-2H-benzo[e][1,2]oxaborinine-8-carboxylic acid] | 128 to 256 | > 128 | < 64 | 128 to 256 | – | – |
| Nc1nc(C(NS(=O)(=O)N2CCOCC2)C(=O)N[C@H]2Cc3cccc(C(=O)O)c3OB2O)cs1 (stereo partly drawn) [Example 24, (3R)-3-(2-(2-aminothiazol-4-yl)-2-(morpholine-4-sulfonamido)acetamido)-2-hydroxy-3,4-dihydro-2H-benzo[e][1,2]oxaborinine-8-carboxylic acid] | 128 to 256 | > 128 | < 64 | 128 to 256 | – | – |
| Nc1nc(C(NC(=O)NCC(=O)O)C(=O)N[C@H]2Cc3cccc(C(=O)O)c3OB2O)cs1 (stereo partly drawn) [Example 90, (3R)-3-(2-(2-aminothiazol-4-yl)-2-(3-(carboxymethyl)ureido)acetamido)-2-hydroxy-3,4-dihydro-2H-benzo[e][1,2]oxaborinine-8-carboxylic acid] | 128 to 256 | > 128 | < 64 | – | – | – |
| CC(C)(O/N=C(\C(=O)N[C@@H]1C(=O)N2C(C(=O)[O-])=C(C[n+]3ccccc3)CS[C@H]12)c1csc(N)n1)C(=O)O [ceftazidime, reference compound] | 8 to 16 | – | – | < 1 | – | weaker MICs |
| CCN1CCN(C(=O)N[C@@H](C(=O)N[C@@H]2C(=O)N3[C@@H]2SC(C)(C)[C@@H]3C(=O)O)c2ccccc2)C(=O)C1=O [piperacillin, reference compound] | 128 to 256 | – | – | < 1 | – | weaker MICs |
